Assay: mn = molality of the nth substance listed, in mol/kg
Details: 101 kPa, Liquid; for mass density: Pycnometric method; for viscosity: Capillary tube (Ostwald / Ubbelohde) method; for speed of sound: Linear variable-path acoustic interferometer

CC(=O)[O-].CC(=O)[O-].[Mg+2] [magnesium acetate] + O
Details | mass density [kg/m3] | speed of sound [m/s] | viscosity [mPa·s]
314.7 K, m1 = 1.608 | 1097.8 | – | –
314.75 K, m1 = 2.134 | 1125.2 | – | –
314.85 K, m1 = 2.622 | 1148.5 | – | –
315 K, m1 = 5.165 | 1241.7 | – | –
315.2 K, m1 = 0.1671 | 1003.8 | – | –
315.25 K, m1 = 3.437 | 1186.9 | – | –
315.55 K, m1 = 3.819 | 1198.5 | – | –
315.65 K, m1 = 3.043 | 1166.4 | – | –
315.85 K, m1 = 1.866 | 1110.4 | – | –
316.05 K, m1 = 1.106 | 1068 | – | –
316.05 K, m1 = 6.187 | 1269 | – | –
316.25 K, m1 = 0.0414 | 994.01 | – | –
316.35 K, m1 = 6.545 | 1276.6 | – | –
316.7 K, m1 = 0.646 | 1037.6 | – | –
316.95 K, m1 = 0.0831 | 996.85 | – | –
317.05 K, m1 = 2.622 | 1147.3 | – | –
317.1 K, m1 = 0.4247 | 1021.9 | – | –
317.15 K, m1 = 1.608 | 1096.6 | – | –
317.3 K, m1 = 2.134 | 1124.1 | – | –
317.3 K, m1 = 5.732 | 1255.6 | – | –
317.7 K, m1 = 3.819 | 1197.2 | – | –
317.9 K, m1 = 6.187 | 1267.7 | – | –
318 K, m1 = 4.547 | 1220.8 | – | –
318.15 K, m1 = 0.0414 | – | 1539.3 | 0.6244
318.15 K, m1 = 0.0831 | – | 1546 | 0.6418
318.15 K, m1 = 0.1671 | – | 1552.2 | 0.6857
318.15 K, m1 = 0.4247 | – | 1587.9 | 0.8341
318.15 K, m1 = 0.646 | – | 1613.4 | 0.9967
318.15 K, m1 = 0.8751 | – | 1638.1 | 1.163
318.15 K, m1 = 1.106 | – | 1661.5 | 1.405
318.15 K, m1 = 1.354 | – | 1683.6 | 1.679
318.15 K, m1 = 1.608 | – | 1705.8 | 1.679
318.15 K, m1 = 1.866 | – | 1727.8 | 2.437
318.15 K, m1 = 2.134 | – | 1749.8 | 2.967
318.15 K, m1 = 2.411 | – | 1773.8 | 3.777
318.15 K, m1 = 2.622 | – | 1782.8 | 4.254
318.15 K, m1 = 3.043 | – | 1808.1 | 5.774
318.15 K, m1 = 3.437 | – | 1832 | 8.453
318.15 K, m1 = 3.819 | – | 1846.6 | –
318.15 K, m1 = 4.001 | – | – | 12.63
318.15 K, m1 = 4.547 | – | 1868.1 | –
318.15 K, m1 = 4.563 | – | – | 19.6
318.15 K, m1 = 4.929 | – | – | 24.03
318.15 K, m1 = 5.165 | – | 1882.7 | –
318.15 K, m1 = 5.41 | – | – | 41.38
318.15 K, m1 = 5.732 | – | 1888.5 | 53.77
318.15 K, m1 = 6.187 | – | – | 87.61
318.2 K, m1 = 1.866 | 1109.3 | – | –
318.25 K, m1 = 6.545 | 1275.3 | – | –
318.5 K, m1 = 0.0414 | 992.99 | – | –
318.6 K, m1 = 1.327 | 1079.4 | – | –
318.6 K, m1 = 2.411 | 1138.3 | – | –
318.85 K, m1 = 5.165 | 1239 | – | –
319.1 K, m1 = 1.354 | 1080.6 | – | –
319.15 K, m1 = 0.646 | 1036.5 | – | –
319.25 K, m1 = 2.622 | 1146.1 | – | –
319.35 K, m1 = 0.8751 | 1050.8 | – | –
319.4 K, m1 = 0.0831 | 995.82 | – | –
319.5 K, m1 = 1.608 | 1095.5 | – | –
319.5 K, m1 = 2.134 | 1122.8 | – | –
319.65 K, m1 = 3.437 | 1184.4 | – | –
319.95 K, m1 = 3.043 | 1164.1 | – | –
319.95 K, m1 = 4.547 | 1219.5 | – | –
319.95 K, m1 = 6.545 | 1273.9 | – | –
320 K, m1 = 0.1671 | 1001.7 | – | –
320.85 K, m1 = 0.0414 | 991.94 | – | –
320.85 K, m1 = 5.732 | 1253 | – | –
320.95 K, m1 = 1.106 | 1065.8 | – | –
321.4 K, m1 = 0.646 | 1035.4 | – | –
321.55 K, m1 = 6.187 | 1265.1 | – | –
321.7 K, m1 = 3.819 | 1194.7 | – | –
321.8 K, m1 = 6.545 | 1272.5 | – | –
322.15 K, m1 = 0.4247 | 1019.9 | – | –
322.15 K, m1 = 3.043 | 1162.9 | – | –
322.3 K, m1 = 0.1671 | 1000.8 | – | –
322.45 K, m1 = 5.165 | 1236.5 | – | –
322.85 K, m1 = 1.866 | 1107.1 | – | –
323.05 K, m1 = 1.106 | 1064.8 | – | –
323.05 K, m1 = 1.327 | 1077.2 | – | –
323.05 K, m1 = 2.411 | 1135.8 | – | –
323.15 K, m1 = 0.0414 | 990.94 | 1544.5 | 0.5741
323.15 K, m1 = 0.0831 | – | 1549.2 | 0.5893
323.15 K, m1 = 0.1671 | – | 1557.7 | 0.6282
323.15 K, m1 = 0.4247 | – | 1591.1 | 0.7596
323.15 K, m1 = 0.646 | – | 1615.2 | 0.9059
323.15 K, m1 = 0.8751 | – | 1637.7 | 1.052
323.15 K, m1 = 1.106 | – | 1662.2 | 1.271
323.15 K, m1 = 1.354 | – | 1683.9 | 1.503
323.15 K, m1 = 1.608 | – | 1703.7 | 1.503
323.15 K, m1 = 1.866 | – | 1725 | 2.166
323.15 K, m1 = 2.134 | – | 1746.5 | 2.61
323.15 K, m1 = 2.411 | – | 1767.3 | 3.295
323.15 K, m1 = 2.622 | – | 1778.6 | 3.695
323.15 K, m1 = 3.043 | – | 1800.3 | 4.961
323.15 K, m1 = 3.437 | – | 1825 | 7.136
323.15 K, m1 = 3.819 | – | 1837.4 | –
323.15 K, m1 = 4.001 | – | – | 10.52
323.15 K, m1 = 4.547 | – | 1857.2 | –
323.15 K, m1 = 4.563 | – | – | 15.97
323.15 K, m1 = 4.929 | – | – | 19.29
323.15 K, m1 = 5.165 | – | 1871 | –
323.15 K, m1 = 5.41 | – | – | 32.16
323.15 K, m1 = 5.732 | – | 1874.6 | 41.44
323.15 K, m1 = 6.187 | – | – | 65.72
323.45 K, m1 = 6.545 | 1271.3 | – | –
323.5 K, m1 = 2.622 | 1143.8 | – | –
323.65 K, m1 = 1.354 | 1078.3 | – | –
323.75 K, m1 = 0.646 | 1034.3 | – | –
323.75 K, m1 = 3.437 | 1181.9 | – | –
323.75 K, m1 = 4.547 | 1217.1 | – | –
323.95 K, m1 = 0.8751 | 1048.7 | – | –
323.95 K, m1 = 2.134 | 1120.5 | – | –
324.05 K, m1 = 1.608 | 1093.3 | – | –
324.1 K, m1 = 0.0831 | 993.76 | – | –
324.25 K, m1 = 0.4247 | 1018.8 | – | –
324.25 K, m1 = 5.165 | 1235.2 | – | –
324.55 K, m1 = 5.732 | 1250.4 | – | –
325.15 K, m1 = 6.187 | 1262.4 | – | –
325.25 K, m1 = 6.545 | 1269.9 | – | –
325.75 K, m1 = 3.819 | 1192.2 | – | –
328.55 K, m1 = 6.187 | 1259.8 | – | –

From the NIST ThermoML archive (doi:10.1021/je060107n)
